One series concerns fungus organisms. Conditions: background statement; cited from earlier work.
The nature of the next series: physchem. Particulars: water, pH 2, water.
For series [1] the following is noted: forms otherwise stable and appropriate; background statement; cited from earlier work.

This is an account of results in patent publication US4049898A (priority 1975, dated 1977).

As for “Amphotericin B-Calcium-Oxalic Acid Complex [Example 1]”, in the series “solubility in methanol” (100 mg added to 750 ml methanol), the “extent of solubilization in methanol” value turned out to be 40%. In “solubility in methanol” (100 mg in 80 ml methanol, pH adjusted to 9.5 with triethylamine), the “extent of solubility in methanol at pH 9.5” value stood at 35%.
A word on the solubility: it is the dissolved amount per volume that the medium holds. Consider `C[C@@H]1[C@H](O)[C@@H](C)/C=C/C=C/C=C/C=C/C=C/C=C/C=C/[C@H](O[C@@H]2O[C@H](C)[C@@H](O)[C@H](N)[C@@H]2O)C[C@@H]2O[C@](O)(C[C@@H](O)C[C@@H](O)[C@H](O)CC[C@@H](O)C[C@@H](O)CC(=O)O[C@H]1C)C[C@H](O)[C@H]2C(=O)O` [amphotericin B], for which the “solubility in methanol at pH 9.5 (in words)” value is listed as “completely soluble”. In addition, in the series on fungus organisms, the antifungal properties entry was “powerful antifungal properties” and the “development of resistant strains or forms” value was “apparent inability of fungus organisms to develop readily any strains or forms that are resistant to amphotericin B”. Besides, in “solubility in methanol” (750 ml methanol), the “amount soluble in 750 ml of methanol” value is given as 100 mg. The compound further gave a solubility in “physchem” of less than 1000 µg/mL. Also, in series [1], the “water solubility (background, in words)” value is “lack of adequate water solubility”.
